As a reminder, the EC50 is the midpoint of the concentration-response curve.

Chain of recombinant human S1P1 receptor (P21453 whole entry): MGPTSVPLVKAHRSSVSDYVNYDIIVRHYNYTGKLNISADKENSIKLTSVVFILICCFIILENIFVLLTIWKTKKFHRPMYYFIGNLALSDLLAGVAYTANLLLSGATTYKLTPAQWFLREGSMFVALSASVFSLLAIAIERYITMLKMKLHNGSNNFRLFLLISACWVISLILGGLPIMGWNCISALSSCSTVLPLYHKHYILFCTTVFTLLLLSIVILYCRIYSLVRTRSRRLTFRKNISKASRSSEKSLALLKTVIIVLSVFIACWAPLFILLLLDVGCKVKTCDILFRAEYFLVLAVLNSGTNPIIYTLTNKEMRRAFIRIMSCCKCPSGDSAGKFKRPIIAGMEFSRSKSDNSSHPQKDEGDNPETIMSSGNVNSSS

The target of the first test is recombinant human S1P1 receptor (Homo sapiens, UniProt P21453). In words: GTPγS assay to determine EC50 values. The settings on record: 35S-GTPγS binding, membrane preparations of CHO cells expressing recombinant human S1P1 receptor. Type of test: biochemical. The method, then:
The pH was 7.4. Test compounds are dissolved and diluted in 100% DMSO and pre-incubated at room temperature for 30 min in 150 μl of the above assay buffer, in the absence of ^35S-GTPγS. After addition of 50 μl of ^35S-GTPγS, the assay is incubated for 1 h at room temperature. […] Membrane-bound ^35S-GTPγS is measured with a TopCount from Packard Biosciences.
Specific binding is determined by subtracting non-specific binding from maximal binding. Maximal binding is the amount of cpm bound to the Multiscreen plate in the presence of 10 μM of S1P. Non-specific binding is the amount of binding in the absence of an agonist in the assay.
Background: Binding of GTPγS marks nucleotide exchange on a G protein.
Turning to `COc1cc(OCC(C)O)ccc1CNC(=O)c1sc(C)c2c1C[C@@H]1[C@H]2C1(C)C` (mixture of isomers) [Example 24, (1aS,5aR)-1,1,2-trimethyl-1,1a,5,5a-tetrahydro-3-thia-cyclopropa[a]pentalene-4-carboxylic acid 4-((R/S)-2-hydroxy-propoxy)-2-methoxy-benzylamide], the EC50 was 164 nM.
`Cc1cc(CNC(=O)c2sc(C)c3c2C[C@@H]2[C@H]3C2(C)C)cc(C)c1OC[C@@H](O)CO` [Example 5, (1aS,5aR)-1,1,2-trimethyl-1,1a,5,5a-tetrahydro-3-thia-cyclopropa[a]pentalene-4-carboxylic acid 4-((S)-2,3-dihydroxy-propoxy)-3,5-dimethyl-benzylamide]: the EC50 came to 75 nM.
Regarding `COc1cc(OC[C@@H](O)CO)ccc1CNC(=O)c1sc(C)c2c1C[C@@H]1[C@H]2C1(C)C` [Example 7, (1aS,5aR)-1,1,2-Trimethyl-1,1a,5,5a-tetrahydro-3-thia-cyclopropa[a]pentalene-4-carboxylic acid 4-((S)-2,3-dihydroxy-propoxy)-2-methoxy-benzylamide], the EC50 was 183 nM.
For `COc1cc(OCCF)ccc1CNC(=O)c1sc(C)c2c1C[C@@H]1[C@H]2C1(C)C` [Example 36, (1aS,5aR)-1,1,2-Trimethyl-1,1a,5,5a-tetrahydro-3-thia-cyclopropa[a]pentalene-4-carboxylic acid 4-(2-fluoro-ethoxy)-2-methoxy-benzylamide], the EC50 was determined as 300 nM.
As for `COc1ccccc1CCC(=O)c1sc(C)c2c1C[C@@H]1[C@H]2C1(C)C` [Example 48, 3-(2-methoxy-phenyl)-1-((1aS,5aR)-1,1,2-trimethyl-1,1a,5,5a-tetrahydro-3-thia-cyclopropa[a]penta-len-4-yl)-propan-1-one], the EC50 turned out to be 16 nM.
Take `COc1cc(OC[C@@H](O)CO)ccc1CCC(=O)c1sc(C)c2c1C[C@@H]1[C@H]2C1(C)C` [Example 49, 3-[4-((S)-2,3-Dihydroxy-propoxy)-2-methoxy-phenyl]-1-((1aS,5aR)-1,1,2-trimethyl-1,1a,5,5a-tetrahydro-3-thia-cyclopropa[a]pentalen-4-yl)-propan-1-one]: the EC50 came to 2 nM.
In the case of `Cc1cc(CCC(=O)c2sc(C)c3c2C[C@@H]2[C@H]3C2(C)C)cc(Cl)c1OC[C@H](O)CO` [Example 71, 3-[3-Chloro-4-((R)-2,3-dihydroxy-propoxy)-5-methyl-phenyl]-1-((1aS,5aR)-1,1,2-trimethyl-1,1a,5,5a-tetrahydro-3-thia-cyclopropa[a]pentalen-4-yl)-propan-1-one], the EC50 was found to be 1 nM.
Consider `Cc1cc(CCC(=O)c2sc(C)c3c2C[C@@H]2[C@H]3C2(C)C)cc(Cl)c1OCC(C)O` (stereo partly drawn) [Example 74, 3-[3-Chloro-4-(2-hydroxy-propoxy)-5-methyl-phenyl]-1-((1aS,5aR)-1,1,2-trimethyl-1,1a,5,5a-tetrahydro-3-thia-cyclopropa[a]pentalen-4-yl)-propan-1-one], for which the EC50 worked out at 5 nM.
On to `Cc1sc(C(=O)CCc2ccc(OC[C@@H](O)CO)cc2Cl)c2c1[C@H]1[C@@H](C2)C1(C)C` [Example 81, 3-[2-Chloro-4-((S)-2,3-dihydroxy-propoxy)-phenyl]-1-((1aS,5aR)-1,1,2-trimethyl-1,1a,5,5a-tetrahydro-3-thia-cyclopropa[a]pentalen-4-yl)-propan-1-one], for which the EC50 turned out to be 3 nM.
Regarding `CCc1sc(C(=O)CCc2cc(C)c(OC[C@@H](O)CO)c(C)c2)c2c1[C@@H]1[C@H](C2)C1(C)C` [Example 137, 3-[4-((S)-2,3-Dihydroxy-propoxy)-3,5-dimethyl-phenyl]-1-((1aR,5aS)-2-ethyl-1,1-dimethyl-1,1a,5,5a-tetrahydro-3-thia-cyclopropa[a]pentalen-4-yl)-propan-1-one], the EC50 is 0.6 nM.
For `CCc1sc(C(=O)CCc2cc(C)c(OCCCO)c(C)c2)c2c1[C@@H]1[C@H](C2)C1(C)C` [Example 139, 1-((1aR,5aS)-2-Ethyl-1,1-dimethyl-1,1a,5,5a-tetrahydro-3-thia-cyclopropa[a]pentalen-4-yl)-3-[4-(3-hydroxy-propoxy)-3,5-dimethyl-phenyl]-propan-1-one], the EC50 is 4 nM.
In the case of `Cc1cc(C)cc(NCC(=O)c2sc(C)c3c2C[C@@H]2[C@H]3C2(C)C)c1` [Example 157, 2-(3,5-Dimethyl-phenylamino)-1-((1aS,5aR)-1,1,2-trimethyl-1,1a,5,5a-tetrahydro-3-thia-cyclopropa[a]pentalen-4-yl)-ethanone], the EC50 was determined as 9 nM.
As to `Cc1sc(C(=O)CNc2ccc(CCO)cc2)c2c1[C@H]1[C@@H](C2)C1(C)C` [Example 163, 2-[4-(2-Hydroxy-ethyl)-phenylamino]-1-((1aS,5aR)-1,1,2-trimethyl-1,1a,5,5a-tetrahydro-3-thia-cyclopropa[a]pentalen-4-yl)-ethanone], the EC50 is 3 nM.

The subject of the next test is circulating lymphocytes. In words: Assessment of in vivo efficacy: circulating lymphocytes after oral administration. The settings on record: 3 h after oral administration of 30 mg/kg, normotensive male Wistar rats, compared to vehicle group; mean±SEM. The procedure: The efficacy of the compounds of Formula (I) is assessed by measuring the circulating lymphocytes after oral administration of 30 mg/kg of a compound of Formula (I) to normotensive male Wistar rats. The animals are housed in climate-controlled conditions with a 12 h-light/dark cycle, and have free access to normal rat chow and drinking water. […] Full blood is subjected to hematology using Advia Hematology system (Bayer Diagnostics, Zürich, Switzerland).
All data are presented as mean±SEM. Statistical analyses are performed by analysis of variance (ANOVA) using Statistica (StatSoft) and the Student-Newman-Keuls procedure for multiple comparisons. The null hypothesis is rejected when p<0.05.
In the case of `COc1cc(OCC(C)O)ccc1CNC(=O)c1sc(C)c2c1C[C@@H]1[C@H]2C1(C)C` (mixture of isomers) [Example 24, (1aS,5aR)-1,1,2-trimethyl-1,1a,5,5a-tetrahydro-3-thia-cyclopropa[a]pentalene-4-carboxylic acid 4-((R/S)-2-hydroxy-propoxy)-2-methoxy-benzylamide], the Lymphocyte counts is on record as −40 ± 4%.
Same read-out and setting: to `COc1cc(OC[C@@H](O)CO)ccc1CNC(=O)c1sc(C)c2c1C[C@@H]1[C@H]2C1(C)C` [Example 7, (1aS,5aR)-1,1,2-Trimethyl-1,1a,5,5a-tetrahydro-3-thia-cyclopropa[a]pentalene-4-carboxylic acid 4-((S)-2,3-dihydroxy-propoxy)-2-methoxy-benzylamide] belongs −46 ± 3%.
With `Cc1cc(CCC(=O)c2sc(C)c3c2C[C@@H]2[C@H]3C2(C)C)cc(C)c1OC[C@@H](O)CO` [Example 51, 3-[4-((S)-2,3-Dihydroxy-propoxy)-3,5-dimethyl-phenyl]-1-((1aS,5aR)-1,1,2-trimethyl-1,1a,5,5a-tetrahydro-3-thia-cyclopropa[a]pentalen-4-yl)-propan-1-one], the Lymphocyte counts was −44 ± 4%.
The same measure, in the same setting: the result for `Cc1sc(C(=O)CCc2ccc(OC[C@@H](O)CO)c(Cl)c2)c2c1[C@H]1[C@@H](C2)C1(C)C` [Example 75, 3-[3-Chloro-4-((S)-2,3-dihydroxy-propoxy)-phenyl]-1-((1aS,5aR)-1,1,2-trimethyl-1,1a,5,5a-tetrahydro-3-thia-cyclopropa[a]pentalen-4-yl)-propan-1-one] reads −57 ± 5%; that for `Cc1cc(CCC(=O)c2sc(C)c3c2C[C@@H]2[C@H]3C2(C)C)ccc1OC[C@@H](O)CO` [Example 86, 3-[4-((S)-2,3-Dihydroxy-propoxy)-3-methyl-phenyl]-1-((1aS,5aR)-1,1,2-trimethyl-1,1a,5,5a-tetrahydro-3-thia-cyclopropa[a]pentalen-4-yl)-propan-1-one], −47 ± 4%.

The values above are taken from US7750040B2, “Thiophene derivatives” (priority 2004, dated 2010).
